Source: ChEMBL document CHEMBL5608163, “Structure modification of anoplin for fighting resistant bacteria” (Eur J Med Chem, 2024)
Square brackets hold non-standard residues; d marks the D form. Peptide text beside a SMILES is read from it. 2Nal = N[C@@H](Cc1ccc2ccccc2c1)C(=O)O; hLeu = CC(C)CC[C@H](N)C(=O)O; Nva = CCC[C@H](N)C(=O)O

Columns and labels:
Escherichia coli = experiment: Antimicrobial activity against Escherichia coli ATCC 25922 assessed as reduction in microbial growth measured after 24 hrs by CLSI based broth microdilution method; format: functional
Erythrocyte = experiment: Hemolytic activity in human erythrocytes incubated for 1 hr by ELISA reader analysis; format: toxicity, cell-based

Compound | MIC (Escherichia coli) [µM] | HC10 (Erythrocyte) [µM]
CCC[C@H](NC(=O)[C@H](CC(C)C)NC(=O)[C@@H](NC(=O)[C@H](CCCCN)NC(=O)[C@H](Cc1ccc2ccccc2c1)NC(=O)[C@H](CCCNC(=N)N)NC(=O)[C@H](CCCCN)NC(=O)[C@H](CC(C)C)NC(=O)[C@H](CCC)NC(=O)CN)[C@@H](C)O)C(N)=O (H-G[Nva]LKR[2Nal]KTL[Nva]-NH2) | 100 | > 500
CC[C@H](C)[C@H](NC(=O)[C@H](CCCNC(=N)N)NC(=O)[C@H](CCCCN)NC(=O)[C@H](CC(C)C)NC(=O)[C@H](CCC(C)C)NC(=O)CN)C(=O)N[C@@H](CCCCN)C(=O)N[C@H](C(=O)N[C@@H](CC(C)C)C(=O)N[C@@H](CCC(C)C)C(N)=O)[C@@H](C)O (H-G[hLeu]LKRIKTL[hLeu]-NH2) | 12.5 | 380

Second part, led by results:

MIC (Escherichia coli) [µM] | Compound | HC10 (Erythrocyte) [µM]
> 200 | CCC[C@H](NC(=O)[C@H](CCC)NC(=O)[C@@H](NC(=O)[C@H](CCCCN)NC(=O)[C@@H](NC(=O)[C@H](CCCNC(=N)N)NC(=O)[C@H](CCCCN)NC(=O)[C@H](CCC)NC(=O)[C@H](CCC)NC(=O)CN)[C@@H](C)CC)[C@@H](C)O)C(N)=O (H-G[Nva][Nva]KRIKT[Nva][Nva]-NH2) | > 500
> 200 | CCC[C@H](NC(=O)[C@H](CCC)NC(=O)[C@@H](NC(=O)[C@H](CCCCN)NC(=O)[C@H](Cc1ccc2ccccc2c1)NC(=O)[C@H](CCCNC(=N)N)NC(=O)[C@H](CCCCN)NC(=O)[C@H](CCC)NC(=O)[C@H](CCC)NC(=O)CN)[C@@H](C)O)C(N)=O (H-G[Nva][Nva]KR[2Nal]KT[Nva][Nva]-NH2) | > 500
12.5 | CC[C@H](C)[C@H](NC(=O)[C@H](CCCNC(=N)N)NC(=O)[C@H](CCCCN)NC(=O)[C@H](CCC(C)C)NC(=O)[C@H](CCC(C)C)NC(=O)CN)C(=O)N[C@@H](CCCCN)C(=O)N[C@H](C(=O)N[C@@H](CCC(C)C)C(=O)N[C@@H](CCC(C)C)C(N)=O)[C@@H](C)O (H-G[hLeu][hLeu]KRIKT[hLeu][hLeu]-NH2) | 125
